Test results: PubChem BioAssay (NCI)
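Growth conditions: 96-well plates. Treatment: test compound, 48 hours, 5 concentrations. Analysis: linear interpolation between bracketing concentrations; unreached endpoints set to highest concentration. TGI: concentration producing complete growth inhibition.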 Where a SMILES comes first, the peptide text is derived from it. [ ]: non-standard residue; d: D form. The star is where a group is joined. NMeF = CN[CH](Cc1ccccc1)C(=O)O; NMeV = CN[CH](C(=O)O)C(C)C; Boc = CC(C)(C)OC(=O)*; OBn = c1ccc(CO*)cc1

Assays:
Experiment in all cases: growth of human tumour cells (NCI), 48 h
OVCAR-8 ovarian = test system: OVCAR-8 ovarian
SF-539 CNS = test system: SF-539 CNS
M14 melanoma = test system: M14 melanoma
786-0 renal = test system: 786-0 renal
NCI-H226 lung = test system: NCI-H226 lung
HOP-62 NSCLC = test system: HOP-62 NSCLC
CCRF-CEM leukemia = test system: CCRF-CEM leukemia
UACC-62 melanoma = test system: UACC-62 melanoma
DMS 273 small cell lung = test system: DMS 273 small cell lung
ACHN renal = test system: ACHN renal
K-562 leukemia = test system: K-562 leukemia
NCI-H522 lung = test system: NCI-H522 lung
M19-MEL melanoma = test system: M19-MEL melanoma
UACC-257 melanoma = test system: UACC-257 melanoma
COLO 205 colon = test system: COLO 205 colon
XF 498 CNS = test system: XF 498 CNS
HT29 colon = test system: HT29 colon
KM20L2 colon = test system: KM20L2 colon
U251 CNS = test system: U251 CNS
SN12C renal = test system: SN12C renal
RPMI-8226 leukemia = test system: RPMI-8226 leukemia
A549 NSCLC = test system: A549 NSCLC
NCI-H460 lung = test system: NCI-H460 lung
UO-31 renal = test system: UO-31 renal
SK-MEL-5 melanoma = test system: SK-MEL-5 melanoma
NCI-H23 lung = test system: NCI-H23 lung
SW-620 colon = test system: SW-620 colon
MALME-3M melanoma = test system: MALME-3M melanoma
SF-295 CNS = test system: SF-295 CNS
SF-268 CNS = test system: SF-268 CNS
EKVX NSCLC = test system: EKVX NSCLC
LXFL 529 NSCLC = test system: LXFL 529 NSCLC
IGROV1 ovarian = test system: IGROV1 ovarian
KM12 colon = test system: KM12 colon
SR leukemia = test system: SR leukemia
MOLT-4 leukemia = test system: MOLT-4 leukemia
OVCAR-3 ovarian = test system: OVCAR-3 ovarian
SNB-19 CNS = test system: SNB-19 CNS
LOX IMVI melanoma = test system: LOX IMVI melanoma
TK-10 renal = test system: TK-10 renal
HCT-15 colon = test system: HCT-15 colon
HCT-116 colon = test system: HCT-116 colon
HCC-2998 colon = test system: HCC-2998 colon
DMS 114 small cell lung = test system: DMS 114 small cell lung
HL-60(TB) leukemia = test system: HL-60(TB) leukemia
OVCAR-4 ovarian = test system: OVCAR-4 ovarian
SK-MEL-28 melanoma = test system: SK-MEL-28 melanoma
DLD-1 colon = test system: DLD-1 colon
HOP-18 NSCLC = test system: HOP-18 NSCLC
RXF 393 renal = test system: RXF 393 renal
SNB-78 CNS = test system: SNB-78 CNS
SK-OV-3 ovarian = test system: SK-OV-3 ovarian
SNB-75 CNS = test system: SNB-75 CNS

`CC(C)C(NC(=O)OC(C)(C)C)C(=O)N(C)C(Cc1ccccc1)C(=O)N(C)C(C(=O)N(C)C(C(=O)OCc1ccccc1)C(C)C)C(C)C` (stereo unspecified) (Boc-V[NMeF][NMeV][NMeV]-OBn; configuration not given here) showed a TGI (OVCAR-8 ovarian) greater than 100 µM, a TGI (SF-539 CNS) greater than 100 µM and a TGI (M14 melanoma) greater than 100 µM. For the same compound, the TGI (786-0 renal) was greater than 100 µM, the TGI (NCI-H226 lung) was greater than 100 µM and the TGI (HOP-62 NSCLC) was greater than 100 µM. For the same compound, the TGI (CCRF-CEM leukemia) was greater than 100 µM, the TGI (UACC-62 melanoma) was greater than 100 µM and the TGI (DMS 273 small cell lung) was greater than 100 µM. It also gave a TGI (ACHN renal) greater than 100 µM, a TGI (K-562 leukemia) greater than 100 µM and a TGI (NCI-H522 lung) greater than 100 µM. The TGI (M19-MEL melanoma) was greater than 100 µM, the TGI (UACC-257 melanoma) was greater than 100 µM and the TGI (COLO 205 colon) was greater than 100 µM. For the same compound, the TGI (XF 498 CNS) was 82.4 µM, the TGI (HT29 colon) was greater than 100 µM and the TGI (KM20L2 colon) was greater than 100 µM. It also gave a TGI (U251 CNS) greater than 100 µM, a TGI (SN12C renal) greater than 100 µM and a TGI (RPMI-8226 leukemia) greater than 100 µM. It also gave a TGI (A549 NSCLC) greater than 100 µM, a TGI (NCI-H460 lung) greater than 100 µM and a TGI (UO-31 renal) greater than 100 µM. The TGI (SK-MEL-5 melanoma) was greater than 100 µM, the TGI (NCI-H23 lung) was greater than 100 µM and the TGI (SW-620 colon) was greater than 100 µM. For the same compound, the TGI (MALME-3M melanoma) was greater than 100 µM, the TGI (SF-295 CNS) was greater than 100 µM and the TGI (SF-268 CNS) was greater than 100 µM. For the same compound, the TGI (EKVX NSCLC) was greater than 100 µM, the TGI (LXFL 529 NSCLC) was greater than 100 µM and the TGI (IGROV1 ovarian) was greater than 100 µM. For the same compound, the TGI (KM12 colon) was greater than 100 µM, the TGI (SR leukemia) was greater than 100 µM and the TGI (MOLT-4 leukemia) was greater than 100 µM. The TGI (OVCAR-3 ovarian) was greater than 100 µM, the TGI (SNB-19 CNS) was greater than 100 µM and the TGI (LOX IMVI melanoma) was greater than 100 µM. It also gave a TGI (TK-10 renal) greater than 100 µM, a TGI (HCT-15 colon) greater than 100 µM and a TGI (HCT-116 colon) greater than 100 µM. The TGI (HCC-2998 colon) was greater than 100 µM, the TGI (DMS 114 small cell lung) was greater than 100 µM and the TGI (HL-60(TB) leukemia) was greater than 100 µM.
In the case of `OCCc1cnco1`, the TGI (OVCAR-4 ovarian) is reported as greater than 100 µM, the TGI (OVCAR-8 ovarian) is reported as greater than 100 µM and the TGI (SF-539 CNS) is reported as greater than 100 µM. It also gave a TGI (M14 melanoma) greater than 100 µM, a TGI (786-0 renal) greater than 100 µM and a TGI (NCI-H226 lung) greater than 100 µM. It also gave a TGI (HOP-62 NSCLC) greater than 100 µM, a TGI (CCRF-CEM leukemia) greater than 100 µM and a TGI (UACC-62 melanoma) greater than 100 µM. It also gave a TGI (DMS 273 small cell lung) greater than 100 µM, a TGI (K-562 leukemia) greater than 100 µM and a TGI (SK-MEL-28 melanoma) greater than 100 µM. It also gave a TGI (NCI-H522 lung) greater than 100 µM, a TGI (M19-MEL melanoma) greater than 100 µM and a TGI (COLO 205 colon) greater than 100 µM. For the same compound, the TGI (HT29 colon) was greater than 100 µM, the TGI (KM20L2 colon) was greater than 100 µM and the TGI (U251 CNS) was greater than 100 µM. It also gave a TGI (SN12C renal) greater than 100 µM, a TGI (RPMI-8226 leukemia) greater than 100 µM and a TGI (DLD-1 colon) greater than 100 µM. For the same compound, the TGI (HOP-18 NSCLC) was greater than 100 µM, the TGI (RXF 393 renal) was greater than 100 µM and the TGI (A549 NSCLC) was greater than 100 µM. It also gave a TGI (SNB-78 CNS) greater than 100 µM, a TGI (SK-OV-3 ovarian) greater than 100 µM and a TGI (NCI-H460 lung) greater than 100 µM. It also gave a TGI (SK-MEL-5 melanoma) greater than 100 µM, a TGI (NCI-H23 lung) greater than 100 µM and a TGI (SNB-75 CNS) greater than 100 µM. For the same compound, the TGI (SW-620 colon) was greater than 100 µM, the TGI (SF-295 CNS) was greater than 100 µM and the TGI (SF-268 CNS) was greater than 100 µM. For the same compound, the TGI (EKVX NSCLC) was greater than 100 µM, the TGI (LXFL 529 NSCLC) was greater than 100 µM and the TGI (IGROV1 ovarian) was greater than 100 µM. For the same compound, the TGI (KM12 colon) was greater than 100 µM, the TGI (MOLT-4 leukemia) was greater than 100 µM and the TGI (OVCAR-3 ovarian) was greater than 100 µM. The TGI (SNB-19 CNS) was greater than 100 µM, the TGI (LOX IMVI melanoma) was greater than 100 µM and the TGI (TK-10 renal) was greater than 100 µM. For the same compound, the TGI (HCT-116 colon) was greater than 100 µM, the TGI (HCC-2998 colon) was greater than 100 µM and the TGI (DMS 114 small cell lung) was greater than 100 µM. It also gave a TGI (HL-60(TB) leukemia) greater than 100 µM.
